From patent publication EP1319663A1, “Antidepressant folic -, folinic- and glutamic-acid lithium salts” (Dospharma S.A., priority 2001, dated 2003)

Legend:
[1] = test system: rats rendus dépressifs; assay: Modified one-way avoidance test in rat (second depression model); type: in vivo; conditions: dose de 1 mg/kg; per os, twice daily, eight days
Description: (§1) L'activité antidépressive du mélange folate de lithium - glutamate de lithium a été étudiée sur deux modèles de rats rendus dépressifs. On a utilisé comme molécule de référence, la desméthylimipramine (DMI) et comme produit de comparaison un mélange de carbonate de lithium, d'acide folique et d'acide glutamique dans les mêmes proportions que l'association selon l'invention. Les traitements ont été poursuivis per os avec administration biquotidienne durant huit jours.
Le second test pratiqué est un test à voie unique (one-way)modifié. Dans un premier temps on apprend aux rats à passer d'un compartiment à un autre pour éviter un choc électrique. Les rats sélectionnés qui donnent systématiquement la réponse d'évitement sont placés dans un système à quatre compartiments avec retour au premier compartiment. Les animaux apprennent à éviter le choc électrique en passant du compartiment I à II, puis II à III et […]. Le passage de IV vers I pose un problème puisque les rats reconnaissent (ou sentent) le point de départ.
Les rats s'immobilisent en position de « freezing » en dépit des décharges électriques qu'ils reçoivent. Le temps requis pour amener l'immobilisation correspond à une phase de dépression.

[2] = test system: rats rendus dépressifs; assay: Despair test in rat (first depression model); type: in vivo; conditions: dose de 10 mg; per os, twice daily, eight days
Description: as §1
Le premier modèle utilisé est le test du désespoir chez le rat (Despair Test). Les rats sont placés pour ce test dans une cuve d'eau tiédie à 27°C sans possibilité de s'échapper. Après une nage de quelques minutes, les animaux s'immobilisent et le temps moyen d'immobilité est chronométré. Il correspond à la phase de dépression. La DMI (antidépresseur de référence) à la dose de 10 mg diminue de 50 % ce temps d'immobilisation. Une courbe effet-dose a été établie avec l'association folate de lithium-glutamate de lithium. Un effet est observé dès la dose de 1 mg/kg. Il est maximum avec une dose de 20 mg/kg. A titre de comparaison, le lithium administré, sous forme de carbonate de lithium avec un mélange d'acide folique et d'acide glutamique, est moins actif sur ce modèle. On constate une potentialisation des effets du lithium lorsqu'il est administré sous forme de folate de lithium et de glutamate de lithium.

[3] = Solubility of the lithium salts; type: physicochemical; conditions: solvents as named in the value

CNCCCN1c2ccccc2CCc2ccccc21 [DMI, desméthylimipramine]
effet sur le temps d'immobilisation (freezing) [1]: supprime complètement ce temps d'immobilisation | diminution du temps d'immobilisation [2]: 50%

folate de lithium
solubilité [3]: solubles dans l'eau et les solvants hydroxylés

folinate de lithium [folinate lithié]
solubilité [3]: solubles dans l'eau et les alcools
